Experimental findings from patent US20240166610A1, “SUBSTITUTED PYRIDAZINE PHENOL DERIVATIVES” (MEDSHINE DISCOVERY INC., priority 2021, published 2024) are described below.

Structures can show the parent of a compound that is named as a salt.

The target of one series is T1, NLRP3 (Homo sapiens, UniProt Q96P20).
T1 construct: This experiment utilized the human-derived monocyte cell line THP1; endogenous in cells; host or cells: THP-1 (human monocyte line, PMA-differentiated into macrophages)
Put plainly: Detecting IC50 of NLRP3 inhibitor by using THP-1 cells (IL-1β secretion, CBA). The series is classed as cell-based. The conditions noted are these: PMA/LPS/ATP, IL-1β in supernatant. From the text:
1. Experimental principle: This experiment utilized the human-derived monocyte cell line THP1 to investigate the inhibitory activity (IC50) of NLRP3 inhibitor on cellular IL-1β secretion. PMA (12-O-tetradecanoylphorbol-13-acetate) was used to differentiate the monocyte cell line THP1 into mature macrophages, which were then stimulated using LPS (lipopolysaccharide), an agonist of the Toll-like receptor TLR4, to activate the transcriptional activity of the inflammasome NLRP3 and the expression of pro-IL-1β, a precursor of IL-1β. At this time, the inhibitor of NLRP3 was added, and then ATP (adenosine triphosphate) was added to further mature and activate NLRP3, and activate downstream caspase-1. Activated caspase-1 may enzymatically process pro-IL-1β into mature IL-1β that can be secreted.
(1) The density of THP1 cells was adjusted to 5×10^5 cells/mL, then PMA was added, and the final concentration was adjusted to 100 ng/mL. The cells were inoculated 200 μL/well into a 96-well flat-bottom plate, stimulated overnight (<16 hours if possible) at 37° C. and 5% CO2.
(2) The supernatant was discarded the next day, and then the cells were carefully washed twice with Dulbecco's phosphate-buffered saline (200 μL/time).
(3) The cells were stimulated with LPS at a final concentration of 100 ng/mL, added to a 96-well plate (200 μL/well), and cultured at 37° C. and 5% CO2 for 3 hours.
The cells were incubated for 1 hour in a 37° C., 5% CO2 incubator.
(5) ATP was added to each well with a final concentration of 5 mM, and cultured overnight (>18 hours) at 37° C. and 5% CO2.
(6) On the third day, 5 μL of the supernatant was taken, diluted 10-fold, and the content of IL-1β in the supernatant was detected by cytometric bead array (CBA).

The nature of series [1]: In vivo pharmacokinetic evaluation in CD-1 mice. To be noted: male, mouse, plasma, dose IV/PO 2/10 mg/kg. Here is the method: Experimental Example 2: In Vivo Pharmacokinetic Evaluation of Compounds in CD-1 Mice
Experimental purpose: To test the in vivo pharmacokinetics of the compounds in CD-1 mice
CD-1 mice (male, 7 to 9 weeks old)
The rodent pharmacokinetic characteristics after intravenous injection and oral administration of the compounds were tested using a standard protocol. The candidate compound was prepared as a clear solution during the experiment and given to mice for single intravenous injection and oral administration. The vehicle for intravenous injection and oral administration was a mixed vehicle composed of 5% dimethyl sulfoxide and 95% 5% solutol. Four male CD-1 mice were used in this project. Two mice were administered intravenously (IV), and plasma samples were collected at 0 hours (before administration) and 0.0833, 0.25, 0.5, 1, 2, 4, 8, and 24 hours after administration. The other two mice were administered orally by gavage (PO), and plasma samples were collected at 0 hours (before administration) and 0.25, 0.5, 1, 2, 4, 8, and 24 hours after administration. The plasma concentration was quantitatively analyzed by LC-MS/MS analysis method, and the pharmacokinetic parameters were calculated, such as peak concentration (Cmax), clearance rate (CL), half-life (T1/2), […] (Vdss), area under drug-time curve (AUC0-last), bioavailability (F).

Series [2] can be described thus: In vivo pharmacokinetic evaluation in SD rats. The conditions noted are these: male, rat, plasma, dose IV/PO 1/2 mg/kg. Here is the method: Experimental Example 3: In Vivo Pharmacokinetic Evaluation of Compounds in SD Rats
Experimental Purpose: To Test the In Vivo Pharmacokinetics of the Compounds in SD Rats
The rodent pharmacokinetic characteristics after intravenous injection and oral administration of the compounds were tested using a standard protocol. The candidate compound was prepared as a clear solution during the experiment and given to SD rats for single intravenous injection and oral administration. The vehicle for intravenous injection and oral administration was a mixed vehicle composed of 5% dimethyl sulfoxide and 95% 5% solutol. Four male SD rats were used in this project. Two SD rats were administered intravenously, and plasma samples were collected at 0.083, 0.25, 0.5, 1, 2, 4, 8, and 24 hours after administration. The other two SD rats were administered orally by gavage, and plasma samples were collected at 0.25, 0.5, 1, 2, 4, 8, and 24 hours after administration. The plasma concentration was quantitatively analyzed by LC-MS/MS analysis method, and the pharmacokinetic parameters were calculated, such as peak concentration (Cmaz), clearance rate (CL), half-life (T1/2), […] (Vdss), area under drug-time curve (AUC0-last), bioavailability (F).

Series [3] has as its target T2, hERG potassium ion channel (Homo sapiens, UniProt Q12809).
T2 construct: expressed in transfected cells; host or cells: CHO (CHO-hERG cell line)
Briefly: Inhibition test on hERG potassium ion channel (automated patch clamp, CHO-hERG cells). The series is classed as cell-based. The conditions noted are these: Qpatch, highest test concentration 40.00 μM. Here is the method:
Experimental Example 4: Inhibition Test of Compounds on hERG Potassium Ion Channel
Experimental purpose: To detect the effect of the compounds to be tested on the hERG potassium channel by an automated patch clamp method.
1.1 CHO-hERG cells were cultured in a 175 cm^2 culture flask. When the cell density reached 60 to 80%, the culture medium was removed, and the cells were washed once with 7 mL of PBS (phosphate buffered saline), and then digested with 3 mL of digestion solution.
1.2 After the digestion was completed, 7 mL of culture medium was added to neutralize, then the mixture was centrifuged, and the supernatant was aspirated, and then 5 mL of culture medium was added to re-suspend, ensuring 2 to 5×10^6/mL of cell density.
The process of single cell high impedance sealing and whole cell mode formation were all automatically completed by Qpatch instrument, after obtaining the whole cell recording mode, the cells were clamped at −80 mV, before giving a 5-second +40 mV depolarization stimulus, a 50 millisecond −50 mV prevoltage was given first, and then repolarized to −50 mV for 5 seconds, then returned to −80 mV This voltage stimulation was applied every 15 seconds and after recording for 2 minutes, extracellular fluid was recordings for 5 minutes, and then the administration process was started. The compound concentration was given from the lowest test concentration, each test concentration was given for 2.5 minutes, and 3 μM of Cisapride as the positive control compound was given after all concentrations were continuously given. At least 3 cells (n≥3) were tested at each concentration.
4.1 The mother solution of the compound was diluted with DMSO, and 10 μL of mother solution of the compound was added to 20 μL of DMSO solution, and was 3-fold diluted continuously to 6 DMSO concentrations.
4.2 4 μL of compounds with 6 DMSO concentrations were added to 396 μL of extracellular fluid, 100-fold diluted to 6 intermediate concentrations, and then 80 μL of the compounds with 6 intermediate concentrations were added to 320 μL of extracellular fluid, 5-fold diluted to the final concentration to be tested.
4.3 The highest test concentration was 40.00 μM, in a total of 6 concentrations of 40.00, 13.33, 4.44, 1.48, 0.49, and 0.16 μM respectively.
4.4 The content of DMSO in the final test concentration was not more than 0.2%, and this concentration of DMSO had no effect on hERG potassium channel.
4.5 The whole dilution process of compound preparation was completed by Bravo instrument.
The experimental data were analyzed by GraphPad Prism 5.0 software.
On the technique in general: The hERG channel carries a current that helps repolarise heart muscle cells.

Where [4] appears, read: PO, read-out: Area under drug-time curve AUC0-last PO.
Setting [5] is: read-out: Peak concentration Cmax.

T2 sequence (Q12809 whole entry): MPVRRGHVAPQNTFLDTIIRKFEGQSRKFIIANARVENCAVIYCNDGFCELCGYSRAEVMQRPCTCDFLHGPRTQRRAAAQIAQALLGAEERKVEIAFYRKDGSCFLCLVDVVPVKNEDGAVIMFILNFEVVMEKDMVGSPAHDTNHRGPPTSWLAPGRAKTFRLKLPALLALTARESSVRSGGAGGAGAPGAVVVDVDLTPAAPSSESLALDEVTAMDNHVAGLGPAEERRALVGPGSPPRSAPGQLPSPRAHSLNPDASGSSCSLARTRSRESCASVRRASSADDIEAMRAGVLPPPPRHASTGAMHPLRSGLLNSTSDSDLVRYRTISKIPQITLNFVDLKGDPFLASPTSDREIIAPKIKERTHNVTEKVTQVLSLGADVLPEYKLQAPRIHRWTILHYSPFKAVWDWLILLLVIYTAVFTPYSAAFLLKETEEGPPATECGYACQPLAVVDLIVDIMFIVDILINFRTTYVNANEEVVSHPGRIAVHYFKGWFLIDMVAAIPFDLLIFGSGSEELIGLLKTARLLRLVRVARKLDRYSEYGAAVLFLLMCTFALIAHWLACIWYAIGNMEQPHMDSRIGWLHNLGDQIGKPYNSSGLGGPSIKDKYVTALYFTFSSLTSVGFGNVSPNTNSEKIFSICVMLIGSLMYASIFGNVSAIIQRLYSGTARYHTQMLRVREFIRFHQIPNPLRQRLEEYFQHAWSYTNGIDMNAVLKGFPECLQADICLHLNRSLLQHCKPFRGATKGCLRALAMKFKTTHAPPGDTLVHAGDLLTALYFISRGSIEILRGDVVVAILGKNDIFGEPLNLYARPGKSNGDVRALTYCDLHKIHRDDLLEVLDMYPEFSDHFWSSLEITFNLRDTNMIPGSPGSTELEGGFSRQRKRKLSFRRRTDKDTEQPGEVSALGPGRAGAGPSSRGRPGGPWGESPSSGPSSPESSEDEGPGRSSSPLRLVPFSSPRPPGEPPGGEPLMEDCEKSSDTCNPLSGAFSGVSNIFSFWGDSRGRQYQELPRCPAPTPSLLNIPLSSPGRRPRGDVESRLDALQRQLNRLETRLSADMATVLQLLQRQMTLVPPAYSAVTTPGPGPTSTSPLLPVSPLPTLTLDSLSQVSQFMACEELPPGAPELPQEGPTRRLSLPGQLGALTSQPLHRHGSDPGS
T1 sequence (Q96P20 whole entry): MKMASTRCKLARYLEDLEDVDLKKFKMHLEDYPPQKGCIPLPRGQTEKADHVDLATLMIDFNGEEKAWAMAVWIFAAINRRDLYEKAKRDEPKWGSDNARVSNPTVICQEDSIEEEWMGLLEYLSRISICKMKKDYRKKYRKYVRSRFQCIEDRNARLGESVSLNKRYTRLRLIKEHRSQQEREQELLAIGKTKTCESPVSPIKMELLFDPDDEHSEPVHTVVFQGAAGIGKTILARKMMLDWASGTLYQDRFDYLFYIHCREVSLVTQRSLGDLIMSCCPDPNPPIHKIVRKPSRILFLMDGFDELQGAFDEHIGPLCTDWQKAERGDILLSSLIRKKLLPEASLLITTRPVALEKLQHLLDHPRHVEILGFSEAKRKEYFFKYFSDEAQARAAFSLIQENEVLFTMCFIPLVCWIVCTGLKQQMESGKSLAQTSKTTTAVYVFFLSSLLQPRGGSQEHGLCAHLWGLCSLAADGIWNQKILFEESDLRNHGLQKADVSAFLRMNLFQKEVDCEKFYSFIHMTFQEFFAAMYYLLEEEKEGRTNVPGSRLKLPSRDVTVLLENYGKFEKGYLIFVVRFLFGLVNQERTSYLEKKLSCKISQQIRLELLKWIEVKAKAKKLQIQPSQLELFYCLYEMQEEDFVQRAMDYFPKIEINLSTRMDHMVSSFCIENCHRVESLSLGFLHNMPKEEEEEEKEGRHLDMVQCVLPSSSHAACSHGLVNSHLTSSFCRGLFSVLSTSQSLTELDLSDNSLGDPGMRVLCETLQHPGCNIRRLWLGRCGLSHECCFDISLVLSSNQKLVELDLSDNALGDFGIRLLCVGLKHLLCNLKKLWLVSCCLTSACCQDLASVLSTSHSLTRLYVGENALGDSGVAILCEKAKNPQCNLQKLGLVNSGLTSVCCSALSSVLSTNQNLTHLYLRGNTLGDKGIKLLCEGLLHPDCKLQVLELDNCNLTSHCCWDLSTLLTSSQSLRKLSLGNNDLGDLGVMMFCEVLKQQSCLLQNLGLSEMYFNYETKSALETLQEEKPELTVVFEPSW

In the case of `Cc1cc(N[C@@H]2CCCC[C@H]2O)nnc1-c1ccc2sccc2c1O` [Hydrochloride of compound 60], the half-maximal inhibitory concentration (IC50) (commonly the point on the concentration scale where inhibition reaches its midpoint) on NLRP3 was 0.436 nM; in series [3], above 40000 nM. Besides, the half-life is 1.45 h in series [1] (2 mg/kg, IV, read-out: Half-life T1/2 (IV) (converted)) and 1.08 h in series [2] (1 mg/kg, IV, read-out: Half-life T1/2 (IV) (converted)). Also, the clearance came out at 12.8 mL/min/kg in series [1] (2 mg/kg, read-out: Clearance rate CL) and 10 mL/min/kg in series [2] (1 mg/kg, read-out: Clearance rate CL). Besides, the Vd worked out at 1.08 L/kg in series [1] (2 mg/kg, read-out: Tissue distribution Vdss) and 0.402 L/kg in series [2] (1 mg/kg, read-out: Tissue distribution Vdss). Further, the figures for the AUC(0-t) in series [1] (setting [4]) and in series [2] (setting [4]) were 48.1 µM·h and 6.66 µM·h, respectively. In addition, the bioavailability in series [1] (read-out: Bioavailability F) came out at 147%; in series [2] (read-out: Bioavailability F), 71.1%. Moreover, the Cmax in series [1] (setting [5]) was 22.2 µM; in series [2] (setting [5]), 2.61 µM.
